Test system: healthy participants ≥ 60 years
Assay: Adverse events after 3 months daily dosing (Appendix Table S8)
Type: in vivo, human
Procedure: For further details, see the Appendix Table S10 in Appendix and the accompanying clinical protocols synopsis (Appendix Table S11).
Randomized, double-blind, placebo-controlled, parallel-group study to assess the safety, Multiple-dose over 13-tolerability, pharmacokinetics ≥ 60 yrs 100 / 24 weeks (2, 10, 35 or 85 mg and pharmacodynamics of q.d. CNP520 vs. placebo) multiple oral doses of CNP520 in healthy elderly participants
Title A randomized, double-blind, placebo-controlled, parallel-group study to assess the safety, tolerability, pharmacokinetics and pharmacodynamics of multiple oral doses of CNP520 in healthy elderly subjects
Brief title Dose-ranging safety and tolerability study in subjects ≥60 years of age Sponsor and Clinical Novartis
Study type Interventional […]
rationale months to allow initiation future long-term efficacy trials in patients with Alzheimer’s disease (AD) or in subjects at risk of AD. In addition, data relevant for Pharmacokinetic/Pharmacodynamic modeling will be obtained in order to define the target dose in subsequent efficacy studies.
Primary Objective(s) To determine the safety and tolerability of multiple, once-daily oral doses of […]
Secondary • To assess the change from baseline of CSF Aβ concentrations (Aβ1-Objectives 38; Aβ1-40; Aβ1-42) in healthy elderly subjects over 13 weeks treatment with CNP520 as compared to placebo

C[C@@]1(c2nc(NC(=O)c3ncc(C(F)(F)F)cc3Cl)ccc2F)CO[C@@](C)(C(F)(F)F)C(N)=N1 [CNP520]
AE incidence: Blood and lymphatic system disorders (2 mg daily, N = 25): 0 (0.0) n (%) | AE incidence: Ear and labyrinth disorders (2 mg daily, N = 25): 0 (0.0) n (%) | AE incidence: Eye disorders (2 mg daily, N = 25): 2 (8.0) n (%) | AE incidence: Gastrointestinal disorders (2 mg daily, N = 25): 7 (28.0) n (%) | AE incidence: General disorders and administration site conditions (2 mg daily, N = 25): 1 (4.0) n (%) | AE incidence: Immune system disorders (2 mg daily, N = 25): 0 (0.0) n (%) | AE incidence: Infections and infestations (2 mg daily, N = 25): 3 (12.0) n (%) | AE incidence: Injury, poisoning and procedural complications (2 mg daily, N = 25): 7 (28.0) n (%) | AE incidence: Investigations (2 mg daily, N = 25): 2 (8.0) n (%) | AE incidence: Metabolism and nutrition disorders (2 mg daily, N = 25): 1 (4.0) n (%) | AE incidence: Neoplasms benign, malignant & unspecified (incl. cysts and polyps) (2 mg daily, N = 25): 1 (4.0) n (%) | AE incidence: Nervous system disorders (2 mg daily, N = 25): 13 (52.0) n (%) | AE incidence: Psychiatric disorders (2 mg daily, N = 25): 1 (4.0) n (%) | AE incidence: Renal and urinary disorders (2 mg daily, N = 25): 0 (0.0) n (%) | AE incidence: Reproductive system and breast disorders (2 mg daily, N = 25): 0 (0.0) n (%) | AE incidence: Respiratory, thoracic and mediastinal disorders (2 mg daily, N = 25): 6 (24.0) n (%) | AE incidence: Skin and subcutaneous tissue disorders (2 mg daily, N = 25): 3 (12.0) n (%) | AE incidence: Vascular disorders (2 mg daily, N = 25): 0 (0.0) n (%) | Participants with at least one AE (2 mg daily, N = 25): 19 (76.0) n (%) | AE incidence: Blood and lymphatic system disorders (10 mg daily, N = 25): 0 (0.0) n (%) | AE incidence: Ear and labyrinth disorders (10 mg daily, N = 25): 1 (4.0) n (%) | AE incidence: Eye disorders (10 mg daily, N = 25): 5 (20.0) n (%) | AE incidence: Gastrointestinal disorders (10 mg daily, N = 25): 9 (36.0) n (%) | AE incidence: General disorders and administration site conditions (10 mg daily, N = 25): 2 (8.0) n (%) | AE incidence: Immune system disorders (10 mg daily, N = 25): 0 (0.0) n (%) | AE incidence: Infections and infestations (10 mg daily, N = 25): 10 (40.0) n (%) | AE incidence: Injury, poisoning and procedural complications (10 mg daily, N = 25): 11 (44.0) n (%) | AE incidence: Investigations (10 mg daily, N = 25): 0 (0.0) n (%) | AE incidence: Metabolism and nutrition disorders (10 mg daily, N = 25): 1 (4.0) n (%) | AE incidence: Neoplasms benign, malignant & unspecified (incl. cysts and polyps) (10 mg daily, N = 25): 1 (4.0) n (%) | AE incidence: Nervous system disorders (10 mg daily, N = 25): 10 (40.0) n (%) | AE incidence: Psychiatric disorders (10 mg daily, N = 25): 2 (8.0) n (%) | AE incidence: Renal and urinary disorders (10 mg daily, N = 25): 2 (8.0) n (%) | AE incidence: Reproductive system and breast disorders (10 mg daily, N = 25): 2 (8.0) n (%) | AE incidence: Respiratory, thoracic and mediastinal disorders (10 mg daily, N = 25): 6 (24.0) n (%) | AE incidence: Skin and subcutaneous tissue disorders (10 mg daily, N = 25): 7 (28.0) n (%) | AE incidence: Vascular disorders (10 mg daily, N = 25): 2 (8.0) n (%) | Participants with at least one AE (10 mg daily, N = 25): 22 (88.0) n (%) | AE incidence: Blood and lymphatic system disorders (35 mg daily, N = 26): 1 (3.8) n (%) | AE incidence: Ear and labyrinth disorders (35 mg daily, N = 26): 1 (3.8) n (%) | AE incidence: Eye disorders (35 mg daily, N = 26): 0 (0.0) n (%) | AE incidence: Gastrointestinal disorders (35 mg daily, N = 26): 9 (34.6) n (%) | AE incidence: General disorders and administration site conditions (35 mg daily, N = 26): 4 (15.4) n (%) | AE incidence: Immune system disorders (35 mg daily, N = 26): 0 (0.0) n (%) | AE incidence: Infections and infestations (35 mg daily, N = 26): 6 (23.1) n (%) | AE incidence: Injury, poisoning and procedural complications (35 mg daily, N = 26): 10 (38.5) n (%) | AE incidence: Investigations (35 mg daily, N = 26): 1 (3.8) n (%) | AE incidence: Metabolism and nutrition disorders (35 mg daily, N = 26): 0 (0.0) n (%) | AE incidence: Neoplasms benign, malignant & unspecified (incl. cysts and polyps) (35 mg daily, N = 26): 0 (0.0) n (%) | AE incidence: Nervous system disorders (35 mg daily, N = 26): 9 (34.6) n (%) | AE incidence: Psychiatric disorders (35 mg daily, N = 26): 1 (3.8) n (%) | AE incidence: Renal and urinary disorders (35 mg daily, N = 26): 2 (7.7) n (%) | AE incidence: Reproductive system and breast disorders (35 mg daily, N = 26): 0 (0.0) n (%) | AE incidence: Respiratory, thoracic and mediastinal disorders (35 mg daily, N = 26): 5 (19.2) n (%) | AE incidence: Skin and subcutaneous tissue disorders (35 mg daily, N = 26): 2 (7.7) n (%) | AE incidence: Vascular disorders (35 mg daily, N = 26): 0 (0.0) n (%) | Participants with at least one AE (35 mg daily, N = 26): 21 (80.8) n (%) | AE incidence: Blood and lymphatic system disorders (85 mg daily, N = 24): 0 (0.0) n (%) | AE incidence: Ear and labyrinth disorders (85 mg daily, N = 24): 1 (4.2) n (%) | AE incidence: Eye disorders (85 mg daily, N = 24): 4 (16.7) n (%) | AE incidence: Gastrointestinal disorders (85 mg daily, N = 24): 4 (16.7) n (%) | AE incidence: General disorders and administration site conditions (85 mg daily, N = 24): 5 (20.8) n (%) | AE incidence: Immune system disorders (85 mg daily, N = 24): 1 (4.2) n (%) | AE incidence: Infections and infestations (85 mg daily, N = 24): 4 (16.7) n (%) | AE incidence: Injury, poisoning and procedural complications (85 mg daily, N = 24): 8 (33.3) n (%) | AE incidence: Investigations (85 mg daily, N = 24): 1 (4.2) n (%) | AE incidence: Metabolism and nutrition disorders (85 mg daily, N = 24): 0 (0.0) n (%) | AE incidence: Neoplasms benign, malignant & unspecified (incl. cysts and polyps) (85 mg daily, N = 24): 0 (0.0) n (%) | AE incidence: Nervous system disorders (85 mg daily, N = 24): 8 (33.3) n (%) | AE incidence: Psychiatric disorders (85 mg daily, N = 24): 2 (8.3) n (%) | AE incidence: Renal and urinary disorders (85 mg daily, N = 24): 1 (4.2) n (%) | AE incidence: Reproductive system and breast disorders (85 mg daily, N = 24): 0 (0.0) n (%) | AE incidence: Respiratory, thoracic and mediastinal disorders (85 mg daily, N = 24): 5 (20.8) n (%) | AE incidence: Skin and subcutaneous tissue disorders (85 mg daily, N = 24): 6 (25.0) n (%) | AE incidence: Vascular disorders (85 mg daily, N = 24): 1 (4.2) n (%) | Participants with at least one AE (85 mg daily, N = 24): 18 (75.0) n (%) | AE incidence: Blood and lymphatic system disorders (all doses, N = 100): 1 (1.0) n (%) | AE incidence: Ear and labyrinth disorders (all doses, N = 100): 3 (3.0) n (%) | AE incidence: Eye disorders (all doses, N = 100): 11 (11.0) n (%) | AE incidence: Gastrointestinal disorders (all doses, N = 100): 29 (29.0) n (%) | AE incidence: General disorders and administration site conditions (all doses, N = 100): 12 (12.0) n (%) | AE incidence: Immune system disorders (all doses, N = 100): 1 (1.0) n (%) | AE incidence: Infections and infestations (all doses, N = 100): 23 (23.0) n (%) | AE incidence: Injury, poisoning and procedural complications (all doses, N = 100): 36 (36.0) n (%) | AE incidence: Investigations (all doses, N = 100): 4 (4.0) n (%) | AE incidence: Metabolism and nutrition disorders (all doses, N = 100): 2 (2.0) n (%) | AE incidence: Neoplasms benign, malignant & unspecified (incl. cysts and polyps) (all doses, N = 100): 2 (2.0) n (%) | AE incidence: Nervous system disorders (all doses, N = 100): 40 (40.0) n (%) | AE incidence: Psychiatric disorders (all doses, N = 100): 6 (6.0) n (%) | AE incidence: Renal and urinary disorders (all doses, N = 100): 5 (5.0) n (%) | AE incidence: Reproductive system and breast disorders (all doses, N = 100): 2 (2.0) n (%) | AE incidence: Respiratory, thoracic and mediastinal disorders (all doses, N = 100): 22 (22.0) n (%) | AE incidence: Skin and subcutaneous tissue disorders (all doses, N = 100): 18 (18.0) n (%) | AE incidence: Vascular disorders (all doses, N = 100): 3 (3.0) n (%) | Participants with at least one AE (all doses, N = 100): 80 (80.0) n (%) | AE incidence: Musculoskeletal and connective tissue disorders (human, in vivo): 27 (27.0) n (%)

Reference: paper PMC6220303 (EMBO Molecular Medicine, 2018)
